This is an account of results in article PMC2966039 (Journal of Medicinal Chemistry, 2009).

One experiment addresses T1, TbPTR1 (Trypanosoma brucei brucei, UniProt O76290).
T1 sequence (O76290 1-268): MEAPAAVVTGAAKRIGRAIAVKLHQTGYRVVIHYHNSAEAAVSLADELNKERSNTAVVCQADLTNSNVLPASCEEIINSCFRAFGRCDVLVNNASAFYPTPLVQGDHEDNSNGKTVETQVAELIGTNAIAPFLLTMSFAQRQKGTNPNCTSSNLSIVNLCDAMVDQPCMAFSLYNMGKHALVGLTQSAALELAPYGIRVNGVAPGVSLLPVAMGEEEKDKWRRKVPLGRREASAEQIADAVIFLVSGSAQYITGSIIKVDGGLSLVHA
Briefly: TbPTR1 activity assay. Format: biochemical. The settings on record: for Hill slope: averaged over at least two independent measurements; for ligand efficiency: from Ki^app.

A further experiment concerns the target LmPTR1. As to conditions: cited from earlier work.

As a reminder, the Hill slope is the slope factor of the fitted curve. On TbPTR1, `Nc1nc2ccccc2[nH]1` [Compound 5, 2-amino-benzimidazole] registered a Hill slope of 0.9. At TbPTR1 (compared to 4), the drop in affinity result is “more than 20 fold”.

For `COC(=O)c1ccc2nc(N)sc2c1` [Compound 2], at TbPTR1, the Hill slope was 0.6 and the ligand efficiency was 0.46 kcal mol^−1/heavy atom.

Consider `Cc1cnc2nc(N)nc(N)c2n1` [6-methylpteridine-2,4-diamine], for which the inhibition constants result on LmPTR1 is “low micromolar range”. In the case of `Nc1nc2cccc(Cl)c2n1Cc1ccc(Cl)c(Cl)c1` [Compound 10, 7-Chloro-1-(3,4-dichlorobenzyl)-1H-benzo[d]imidazol-2-amine], the Hill slope on TbPTR1 amounted to 1.0. `CCCOc1cccc2nc(N)n(Cc3ccc(Cl)c(Cl)c3)c12` [Compound 11, 7-(n-Propyloxy)-1-(3,4-dichlorobenzyl)-1H-benzo[d]imidazol-2-amine]: the increase in potency on TbPTR1 (compared to the 7-chloro derivative 10) is 10 fold. In turn, `Cc1cccc(-c2ccc3nc(N)[nH]c3c2)c1` [Compound 6] came in with a Hill slope on TbPTR1 of 1.1. In the case of `Nc1nc2ccccc2n1Cc1ccc(Cl)c(Cl)c1` [Compound 9, 1-(3,4-dichloro-benzyl)-2-amino-benzimidazole], the Hill slope at TbPTR1 was 0.7. The increase in affinity entry on TbPTR1 (compared to the virtual screening hit (4)) was “more than 20 fold”. At TbPTR1, `Nc1nc2ccc(C(=O)N3CCCCC3)cc2s1` [Compound 3] yielded a Hill slope of 0.6 and a ligand efficiency of 0.29 kcal mol^−1/heavy atom.

At TbPTR1, `Nc1nc2cccc(-c3ccccc3)c2n1Cc1ccc(Cl)c(Cl)c1` [Compound 12, 7-Phenyl-1-(3,4-dichlorobenzyl)-1H-benzo[d]imidazol-2-amine] displayed a Hill slope of 0.7. `Nc1nc2ccc(Cl)cc2[nH]1` [Compound 4, 2-Amino-6-chloro-benzimidazole]: at TbPTR1, the Hill slope is reported as 0.9 and the ligand efficiency came out at 0.62 kcal mol^−1/heavy atom.
